Tested on: representative oral bacteria S. mutans, F. nucleatum, V. parvula, A. naslundii, P. gingivitis
Assay: in vitro test Minimal Inhibitory Concentration (MIC)
Assay type: cell-based
Conditions: no numbers given
Text: The compositions of the present invention comprise at least one active compound found in an extract of magnolia. As referred to here, such an “extract” of magnolia is an extract from dried cortex, or bark, of a plant from the Magnoliaceae family, such as Magnolia officinalis, (hereinafter “magnolia”) or a synthetic or semi-synthetic equivalent of such an extract or an active component thereof. […] In other embodiments, the antibacterial ingredient comprises an extract of magnolia. […] It should be noted that any plant from the Magnoliaceae family is suitable for the present invention and may be used in alternate embodiments, preferably such that the extract comprises an antimicrobially effective concentration of a compound selected from the group consisting of magnolol, honokiol, tetrahydromagnolol, tetrahydrohonokiol, and mixtures thereof.

SMILES: C=CCc1ccc(O)c(-c2ccc(O)c(CC=C)c2)c1 [honokiol]
- bactericidal properties against representative oral bacteria: demonstrated bactericidal properties

SMILES: C=CCc1ccc(O)c(-c2cc(CC=C)ccc2O)c1 [magnolol]
- bactericidal properties against representative oral bacteria: demonstrated bactericidal properties

SMILES: CCCc1ccc(O)c(-c2ccc(O)c(CCC)c2)c1 [tetrahydrohonokiol]
- bactericidal properties against representative oral bacteria: demonstrated bactericidal properties

SMILES: CCCc1ccc(O)c(-c2cc(CCC)ccc2O)c1 [tetrahydromagnolol]
- bactericidal properties against representative oral bacteria: demonstrated bactericidal properties
